In ChEMBL document CHEMBL1140023, “Synthesis of marine alkaloid: 8,9-dihydrocoscinamide B and its analogues as Novel class of antileishmanial agents” (2007):
Calls of active or inactive are those of the source. No cut-off for these calls is given here.

Legend:
Assay type in all cases: functional
Leishmania donovani [1] = experiment: Antileishmanial activity against Leishmania donovani assessed as inhibition of promastigotes at 10 ug/ml
Leishmania donovani [2] = experiment: Antileishmanial activity against Leishmania donovani assessed as inhibition of amastigotes at 10 ug/ml
Leishmania donovani [3] = experiment: Antileishmanial activity against Leishmania donovani assessed as inhibition of promastigotes at 0.5 ug/ml
Leishmania donovani [4] = experiment: Antileishmanial activity against Leishmania donovani assessed as inhibition of amastigotes at 50 ug/ml

| SMILES | inhibition at 10 µg/mL (Leishmania donovani [1]) | other results |
| --- | --- | --- |
| O=C(NCc1ccccc1)C(=O)c1c[nH]c2ccccc12 | 53.9% |  |
| O=C(C(=O)N1CCOCC1)c1c[nH]c2ccccc12 | 83.2% | inhibition at 10 µg/mL (Leishmania donovani [2]): 78.1% |
| O=C(NCCCN1CCOCC1)C(=O)c1c[nH]c2ccccc12 | 73% |  |
| O=C(NCCCn1ccnc1)C(=O)c1c[nH]c2ccccc12 | 55.5% |  |
| COc1ccc(CCNC(=O)C(=O)c2c[nH]c3ccccc23)cc1OC | 78.2% |  |
| O=C(NCCc1cn(S(=O)(=O)c2ccccc2)c2ccccc12)C(=O)c1cn(S(=O)(=O)c2ccccc2)c2ccccc12 | 49% |  |
| COc1ccc(CCNC(=O)C(=O)c2c[nH]c3ccccc23)cc1 | 68.5% |  |
| N=C(N)NC(=O)C(=O)c1c[nH]c2ccccc12 | 55% |  |
| O=C(NCCc1c[nH]c2ccccc12)C(=O)c1c[nH]c2cc(Br)ccc12 | 99.2% | inhibition at 10 µg/mL (Leishmania donovani [2]): 75.1% |
| N=C(N)c1ccc(OCCCCCOc2ccc(C(=N)N)cc2)cc1 [PENTAMIDINE] | 30% | inhibition at 0.5 µg/mL (Leishmania donovani [3]): 85%; inhibition at 50 µg/mL (Leishmania donovani [4]): 90% |
| CN1CCN(C(=O)C(=O)c2c[nH]c3ccccc23)CC1 | 35.9% |  |
| O=C(NCc1ccco1)C(=O)c1c[nH]c2ccccc12 | 99.2% | Activity (Leishmania donovani [2]): inactive |
| O=C(Nc1nc2ccccc2s1)C(=O)c1c[nH]c2ccccc12 | 18% |  |
| O=C(Nc1ccc2[nH]ccc2c1)C(=O)c1c[nH]c2ccccc12 | 93.7% | Activity (Leishmania donovani [2]): Active |
| O=C(NCCc1c[nH]c2ccccc12)C(=O)c1c[nH]c2ccccc12 | 100% | inhibition at 10 µg/mL (Leishmania donovani [2]): 97.7% |
| Cn1cc(CCNC(=O)C(=O)c2cn(C)c3ccccc23)c2ccccc21 | 99% | inhibition at 10 µg/mL (Leishmania donovani [2]): 97.8% |
| O=C(NCCc1c[nH]c2ccccc12)C(=O)c1c[nH]c2c(Cl)cccc12 | 99.1% | inhibition at 10 µg/mL (Leishmania donovani [2]): 59.1% |
